Data reported in ChEMBL document CHEMBL5608244, “Preclinical Evaluation of Dihydropyrazole-Cored Positron Emission Tomography (PET) Ligands for Imaging of Receptor-Interacting Serine/Threonine Protein Kinase 1 (RIPK1) in the Brain” (J Med Chem, 2024).

Test: Drug uptake in thalamus of ICR mouse brain assessed as reduction in radioactivity incubated for 30 mins in presence of 0.5 uM of 1-(5-(3-fluorophenyl)-4,5-dihydro-1H-pyrazol-1-yl)-2,2-dimethylpropan-1-one by Phosphor Imager analysis
Type: ADME, tissue-based
Parameters: scale not given: the % may be the effect or the level left
Conditions: 0.5 h

CC(C)(C)C(=O)N1N=CCC1c1cccc([18F])c1 (stereo unspecified)
Activity: ~ 5%
